Data from ChEMBL document CHEMBL1140504, “Mimetics of the tri- and tetrasaccharide epitope of GQ1balpha as myelin-associated glycoprotein (MAG) ligands” (Bioorg Med Chem, 2007).
Activity calls are given as the source filed them. The rule behind the calls is not given here.

target: T1, Myelin-associated glycoprotein (Homo sapiens) (UniProt P20916); assay: Ratio of IC50 for drug to sodium (2S,4S,5R,6R)-5-acetami do-2-((2R,3R,4S,5S,6R)-2-((2R, 3R,4S,6S)-3-acetamido-6-(hydro xymethyl)-2-(2-(trimethylsilyl )ethoxy)-tetrahydro-2H-pyran-4 -yloxy)-3,5-dihydroxy-6-(hydro xymethyl)-tetrahydro-2H-pyran- 4-yloxy)-4-hydroxy-6-((1S,2R)- 1,2,3-trihydroxypropyl)-tetrah ydro-2H-pyran-2-carboxylate for human recombinant MAG N-terminal domain expressed in CHO cells; assay type: cell-based
T1 sequence (whole entry): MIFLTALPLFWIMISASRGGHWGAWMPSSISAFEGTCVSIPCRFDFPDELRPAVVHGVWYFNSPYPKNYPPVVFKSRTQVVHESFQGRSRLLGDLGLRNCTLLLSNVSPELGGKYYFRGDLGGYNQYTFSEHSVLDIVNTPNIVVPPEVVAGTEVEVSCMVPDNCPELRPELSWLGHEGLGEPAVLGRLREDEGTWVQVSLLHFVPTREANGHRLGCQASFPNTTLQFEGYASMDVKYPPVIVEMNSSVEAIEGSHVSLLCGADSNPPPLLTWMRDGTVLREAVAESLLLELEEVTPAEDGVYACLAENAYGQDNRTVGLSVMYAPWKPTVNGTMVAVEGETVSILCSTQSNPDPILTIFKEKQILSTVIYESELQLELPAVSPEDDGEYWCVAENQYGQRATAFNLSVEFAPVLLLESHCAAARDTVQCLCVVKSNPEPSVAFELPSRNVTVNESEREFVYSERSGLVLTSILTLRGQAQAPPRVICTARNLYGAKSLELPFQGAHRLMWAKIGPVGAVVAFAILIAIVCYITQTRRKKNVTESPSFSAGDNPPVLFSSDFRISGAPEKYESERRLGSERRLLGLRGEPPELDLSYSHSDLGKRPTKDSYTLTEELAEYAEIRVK

`CC(=O)N[C@H]1[C@H]([C@@H](O)[C@H](O)CO)O[C@](Oc2ccc(Oc3ccccc3)cc2)(C(=O)O)C[C@@H]1O` was tested, and the Activity was “inactive”.
`CC(=O)N[C@H]1[C@H]([C@@H](O)[C@H](O)CO)O[C@](OCc2cccc(Oc3ccccc3)c2)(C(=O)O)C[C@@H]1O` was tested, and the Activity was “inactive”.

Compared with `CC(=O)N[C@H]1[C@H]([C@@H](O)[C@H](O)CO)O[C@@](Oc2cccc(-c3ccc(CC(=O)O)cc3)c2)(C(=O)O)C[C@@H]1O`, `CC(=O)N[C@H]1[C@H]([C@@H](O)[C@H](O)CO)O[C@@](OCc2ccc(-c3ccccc3)cc2)(C(=O)O)C[C@@H]1O` is lower in Ratio IC50: 1 for the first, 0.38 for the second.

Compared with `CC(=O)N[C@H]1[C@H]([C@@H](O)[C@H](O)CO)O[C@@](OCc2ccccc2)(C(=O)O)C[C@@H]1O`, `CC(=O)N[C@H]1[C@H]([C@@H](O)[C@H](O)CO)O[C@@](Oc2ccc(Oc3ccccc3)cc2)(C(=O)O)C[C@@H]1O` is higher in Ratio IC50: 0.62 for the first, 0.89 for the second.

Compared with `CC(=O)N[C@H]1[C@H]([C@@H](O)[C@H](O)CO)O[C@@](Oc2cccc(-c3cn(-c4ccc(C(=O)O)cc4)nn3)c2)(C(=O)O)C[C@@H]1O`, `CC(=O)N[C@H]1[C@H]([C@@H](O)[C@H](O)CO)O[C@@](Oc2cccc(-c3cn(CC(=O)O)nn3)c2)(C(=O)O)C[C@@H]1O` is higher in Ratio IC50: 0.9 for the first, 1.1 for the second.

Going from `CO[C@]1(C(=O)O)C[C@H](O)[C@@H](NC(C)=O)[C@H]([C@@H](O)[C@H](O)CO)O1` to `CC(=O)N[C@H]1[C@H](OCC[Si](C)(C)C)O[C@H](CO[C@]2(C(=O)O)C[C@H](O)[C@@H](NC(C)=O)[C@H]([C@H](O)[C@H](O)CO)O2)C[C@@H]1O[C@@H]1O[C@H](CO)[C@H](O)[C@H](O[C@]2(C(=O)O)C[C@H](O)[C@@H](NC(C)=O)[C@H]([C@@H](O)[C@H](O)CO)O2)[C@H]1O`, the Ratio IC50 rises from 0.07 to 4.
